Data: publication PMC6150792 (Pain, 2018)
Several values for one entry are separate records, joined by “and”; a condition that tells them apart may be missing. Equal entries are not always repeated. Where two headings read alike, the source gives them in different places. Ends that are not written are not given here.

Tests used:
[1] = tested on: presynaptic N-type voltage-gated calcium channels; settings: ref [66]; cited from earlier work
[2] = tested on: model of postoperative, neuropathic, pain, and cephalic pain; settings: ref [63], [65]; cited from earlier work
[3] = tested on: CRMP2 residue S522 phosphorylation by Cdk5; settings: ref [66]; cited from earlier work
[4] = tested on: cytosolic Na+ in cultured DRG neurons; test: Sodium fluorescence imaging; assay type: cell-based, rat
SUMOylation = settings: cited from earlier work
humans = settings: current clinically used medication; no reference given; cited from earlier work
NaV1.7 = settings: CAD cells; ref [20]; [21]; cited from earlier work
[5] = molecular target: recombinant human CRMP2-His (collapsin response mediator protein 2) (human) (UniProt Q16555); test: MST
[6] = molecular target: recombinant human CRMP2-His (collapsin response mediator protein 2) (human) (UniProt Q16555); test: MST; remark: listed apart in the source
[7] = molecular target: recombinant human CRMP2-His (collapsin response mediator protein 2) (human) (UniProt Q16555); test: MST; remark: listed apart in the source
[8] = molecular target: recombinant human CRMP2-His (collapsin response mediator protein 2) (human) (UniProt Q16555); test: AlphaScreen or HTRF
[9] = molecular target: recombinant human CRMP2-His (collapsin response mediator protein 2) (human) (UniProt Q16555); test: MST; remark: listed apart in the source
CRMP2 = test: Microscale thermophoresis; design: species or system human; settings: read-out: apparent Kd, Ubc9 binding to CRMP2; MST; Ubc9-GST 0.003-100 μM; NT-647 labeled CRMP2; PBS-T (0.05% Tween-20), room temperature, 10 min; no cofactor; mean ± SEM, n=3
Ubc9-CRMP2 interaction = Ubc9-CRMP2 interaction (Homo sapiens, UniProt P63279); test: ALPHA assay, Ubc9-GST binding to CRMP2-His and its disruption; settings: binding stable over at least this window
Ubc9 = Ubc9 (Homo sapiens, UniProt P63279); test: MST, t-CSM binding to NT-647 labeled Ubc9
SNI rats = settings: rat, in vivo

COC[C@H](NC(C)=O)C(=O)NCc1ccccc1 [(S)-lacosamide]
calcium influx [1]: decrease of calcium influx
thermal hypersensitivity and mechanical allodynia [2]: mitigation of thermal hypersensitivity and mechanical allodynia
CRMP2 phosphorylation by Cdk5 [3]: inhibiting phosphorylation by Cdk5

C[C@@H]1O[C@@H](O[C@H]2C[C@@H](O)[C@]3(CO)[C@H]4[C@H](O)C[C@]5(C)[C@@H](C6=CC(=O)OC6)CC[C@]5(O)[C@@H]4CC[C@]3(O)C2)[C@H](O)[C@H](O)[C@H]1O [Ouabain]
effect on [Na+]c of ouabain alone ([4]; ouabain 1 mM alone, SBFI): increase in [Na^+]c

NC1=N[C@H](O)[C@H]2[C@H]3O[C@]4(O)O[C@@H]([C@@H](O)[C@@]2(N1)[C@@H]4O)[C@]3(O)CO [TTX, tetrodotoxin]
ouabain-induced increase in [Na+]c [4]: inhibited

C[C@H]1Oc2cc3c(-c4c(O)cc(O)c5c(O)c6c(cc45)O[C@H](C)[C@@H](C)C6=O)c(O)cc(O)c3c(O)c2C(=O)[C@@H]1C [chaetochromin A]
inhibition of SUMOylation (SUMOylation; ref [35]): inhibitors of SUMOylation

NCC1(CC(=O)O)CCCCC1 [gabapentin]
ability to remain on the rotating rod (naïve male SD rats; gabapentin, naïve rats, data not shown): decrease in the ability of naïve rats to remain on the rotating rod
sedation in humans (humans): severe sedation in humans

C[C@@H]1O[C@@H](O[C@H]2[C@H](O)C[C@H](c3ccc4c(c3O)C(=O)C3=C(C4=O)[C@@]4(O[C@H]5CC[C@H](O)[C@H](C)O5)C(=O)C[C@](C)(O)C[C@@]4(O)C=C3)O[C@@H]2C)CC[C@@H]1O[C@H]1C[C@@H](O)[C@H](O)[C@@H](C)O1 [kerriamycin B]
inhibition of SUMOylation (SUMOylation; ref [28]): inhibitors of SUMOylation

COC(=CC(=O)O)C1c2cc3ccc(-c4ccc5cc6c(c(O)c5c4O)C(=O)CC(C)(O)C6C(=CC(=O)O)OC)c(O)c3c(O)c2C(=O)CC1(C)O (stereo not shown) [spectomycin B1]
inhibition of SUMOylation (SUMOylation; ref [35]): inhibitors of SUMOylation

COC1=C(c2c(OC)cc3cc4c(c(O)c3c2O)C(=O)O[C@H](C)C4)C(=O)c2c(cc3c(c2O)C(=O)O[C@H](C)C3)C1=O [viomellein]
inhibition of SUMOylation (SUMOylation; ref [35]): inhibitors of SUMOylation

Huwentoxin-IV
contribution of NaV1.7 to total sodium currents by isoform-specific blockade (NaV1.7): ~ 80%

Ubc9-GST fusion protein (E2 SUMO-conjugating enzyme Ubc9) (from UniProt P63279 1-158)
Kd [5]: 7.6 µM
Kd [6]: 26 µM
Kd [7]: 25.5 µM
Kd [8]: 0.8 µM
Kd [9]: 12.2 µM
other [9]: 80 µM and 137 µM

Ubc9: E2 SUMO-conjugating enzyme, recombinant Ubc9-GST fusion protein
Kd (CRMP2): 12.2 ± 2.7 µM
stability of Ubc9-CRMP2 binding signal (Ubc9-CRMP2 interaction): ≥ 18 h

YGRKKRRQRRRGKMDENQ [t-CSM]
Kd (Ubc9): 0.4 ± 0.1 µM
motor impairment or sedation (naïve male SD rats; rat, in vivo): no motor impairment or sedation
time on rotarod (naïve male SD rats; rat, in vivo): 180 ± 0 s
motor performance in SNI rats (SNI rats): did not affect motor performance at any time point

ginkgolic acid
inhibition of SUMOylation (SUMOylation; ref [27]): inhibitors of SUMOylation
